Values quoted from earlier work in PMC7123690 (HCV: The Journey from Discovery to a Cure, 2018).
Read-outs that look alike come from different tables or passages of the source.

Assays:
HCV GT-1 = HCV GT-1 patients
CYP 1A2 = conditions: recombinant CYP 1A2
HCV NS3/4A GT-1a enzyme = conditions: read-out: IC50 GT-1a enzyme
[1] = system: individual recombinant CYP enzymes
isolated rabbit hearts = conditions: for effects on HR and SNRT: 60 min perfusion
[2] = system: GT-1 and GT-4 replication; conditions: GT-1 and GT-4 replicons
[3] = dog LM
[4] = HLM
CYP 2D6 = conditions: recombinant CYP 2D6
CYP 2C19 = conditions: recombinant CYP 2C19
[5] = cynomolgus monkey LMs
[6] = rat, dog, and cynomolgus monkey plasma
HCV = conditions: combined with IFN-α, ribavirin (52), 2 and 3
HCV GT-1b replicon = conditions: read-out: EC50 GT-1b replicon
[7] = rat
[8] = not given; remark: listed apart in the source
[9] = P-gp knockout mice
[10] = dog
[11] = RLM
[12] = not given; remark: listed apart in the source
CYP 2C9 = conditions: recombinant CYP 2C9
[13] = system: bovine viral diarrhea virus
[14] = dog; remark: listed apart in the source
[15] = anesthetized rabbits
[16] = system: cardiac ion channel and receptor screens
[17] = not given; remark: listed apart in the source
[18] = system: canine parainfluenza virus
[19] = not given; remark: listed apart in the source
GT-1 HCV = conditions: 120 mg dose, 12-h post-dose, GT-1 HCV patients
[20] = 60-min perfusion protocol, 10 μM, similar to vehicle control

C=C[C@@H]1C[C@]1(NC(=O)[C@@H]1C[C@@H](Oc2ncc(OC)c3ccc(Cl)cc23)CN1C(=O)[C@@H](NC(=O)OC(C)(C)C)C(C)(C)C)C(=O)NS(=O)(=O)C1CC1 [Compound 1, Asunaprevir]
mean plasma HCV RNA decline (HCV GT-1; single 50 mg dose): 0.64 log10 IU/mL
mean plasma HCV RNA decline (HCV GT-1; single 200 mg dose): 2.26 log10 IU/mL
mean plasma HCV RNA decline (HCV GT-1; single 600 mg dose): 2.87 log10 IU/mL
IC50 (CYP 3A4; CYP 3A4, substrate probe 7-benzyloxy-trifluoromethylcoumarin (BFC)): 29 µM
IC50 (CYP 3A4; CYP 3A4, substrate probe benzyloxyresorufin (BZR)): 8 µM
IC50 (CYP 3A4; CYP 3A4, substrate probe midazolam): 27 µM
IC50 (CYP 1A2): > 40 µM
permeability in PAMPA (pH = 5.5): > 47.3 ×10⁻⁶ cm/s
permeability in PAMPA (pH = 7.4): > 49.2 ×10⁻⁶ cm/s
IC50 (HCV NS3/4A GT-1a enzyme): 0.001 µM
metabolic turnover by recombinant CYP enzymes [1]: significant metabolic turnover only by CYP 3A4
maximal increase in SNRT (isolated rabbit hearts; [20]): 14%
maximal reduction of heart rate (isolated rabbit hearts; [20]): 10%
% HR change (isolated rabbit hearts; perfusion concentration 10 μM): −4%
% SNRT change (isolated rabbit hearts; perfusion concentration 10 μM): 5%
EC50 [2]: < 0.005 µM
turnover in LMs [3]: 4.7 pmol/min/mg
turnover in LMs [4]: 5.8 ± 1.8
IC50 (CYP 2D6): > 40 µM
IC50 (CYP 2C19): > 40 µM
turnover in LMs [5]: 50 ± 22 pmol/min/mg
plasma protein binding [6]: 97.2–98.8%
activity in combination studies (HCV): additive or synergistic activity
EC50 (HCV GT-1b replicon): 0.006 µM
direct excretion into the bile [7]: 9 % of the dose
liver level 24-h post-dose ([7]; oral): 15.2 µM
plasma protein binding ([8]; human plasma): 98.8%
oral bioavailability [9]: > 100%
direct excretion into the bile [10]: 22 % of the dose
turnover in LMs [11]: 4.9 pmol/min/mg
adverse events (AEs) ([12]; NHVs, single doses 10-1,200 mg oral suspension): generally mild to moderate and comparable to the placebo controls
cardiac safety analysis ([12]; short duration SAD study): no evidence of an increased risk of adverse cardiac events
IC50 (CYP 2C9): > 40 µM

C=C[C@@H]1C[C@]1(NC(=O)[C@@H]1C[C@@H](Oc2nccc3cc(OC)ccc23)CN1C(=O)[C@@H](NC(=O)OC(C)(C)C)C(C)(C)C)C(=O)NS(=O)(=O)C1CC1 [Compound 30]
activity in cell culture replication assay [13]: inactive
affinity for plasma proteins [14]: 98.2%
decline in HR (isolated rabbit hearts; 3 μM, ~12 min perfusion): −15 bpm
decline in HR (isolated rabbit hearts; 10 μM, ~12 min perfusion): −23 bpm
effects on atrioventricular conduction time or QRS interval (isolated rabbit hearts; 0.3-10 μM): no effects
increase in SNRT (isolated rabbit hearts; 3 and 10 μM, ~12 min perfusion): ≥ 425 ms
effects on HR and SNRT (isolated rabbit hearts; 0.1 μM): absent
effects on HR and SNRT (isolated rabbit hearts; 0.3 μM): attenuated
effects on HR and SNRT (isolated rabbit hearts; 1 μM): effects on HR and SNRT were observed
% HR change (isolated rabbit hearts; perfusion concentration 10 μM): −25%
decline in HR ([15]; IV 1, 3 and 10 mpk each infused over 5 min): 32 bpm
reduction in blood pressure from baseline ([15]; not drug related, also seen in vehicle controls): 14–23 mmHg
activity in cell culture replication assay (HIV-1): inactive
outcome of cardiac ion channel and receptor screens [16]: failed to identify a biochemical target
EC50 (HCV GT-1b replicon): 0.012 µM
oral bioavailability [7]: 18%
plasma t 1/2 [7]: 4.4 h
plasma level 24-h post-dose ([7]; oral 20 mpk): 8 nM
terminal t 1/2 ([17]; NHVs, single oral doses 10-120 mg): 4 to 8 h
effects on cardiac function (electrocardiographic changes) ([17]; one NHV and one HCV-infected patient, 120 mg dose): transient mild bradycardia, PR interval prolongation, and junctional rhythm disturbances
affinity for plasma proteins ([8]; human): 99.1%
oral bioavailability ([10]; PO, 1 mpk): 23%
activity in cell culture replication assay [18]: inactive
observed cardiovascular effects ([19]; conscious telemetrized dogs, two 15 mpk doses): a reduction in heart rate and prolongation of the PR interval
plasma exposure at which CV effects occurred ([19]; estimated from non-telemeterized animals): approximately 12 μM
mean decline in viral load (GT-1 HCV): 1.8 log10 IU/mL
